Read-outs that look alike come from different tables or passages of the source.
Key:
[1] = log P determination by HPLC on reverse-phase column (C 18), acidic range pH 2.3 (EEC Directive 79/831 Annex V. A8); type: physicochemical; conditions: for chromatographic logP: reverse-phase HPLC column (C 18)
Description: The stated log P values were determined in accordance with EEC Directive 79/831 Annex V. A8 by HPLC (High Performance Liquid Chromatography) on a reverse-phase column (C 18). Temperature: 43° C. Mobile phases for the determination in the acidic range (pH 2.3): 0.1% aqueous phosphoric acid, acetonitrile; linear gradient from 10% acetonitrile to 90% acetonitrile. Calibration was carried out using unbranched alkan-2-ones (having 3 to 16 carbon atoms) with known log P values (determination of the log P values by the retention times using linear interpolation between two successive alkanones).

Venturia inaequalis = assay: Venturia test (apple)/protective; type: in vivo; conditions: protective, application rate 100 g/ha, evaluation 10 days after inoculation, 0% = control, 100% = no infection
Description: (§1) To produce a suitable preparation of active compound, 1 part by weight of active compound is mixed with the stated amounts of solvents and emulsifier, and the concentrate is diluted with water to the desired concentration.
To test for protective activity, young plants are sprayed with the preparation of active compound at the stated application rate. After the spray coating has dried on, the plants ate inoculated with an aqueous conidia suspension of the apple scab pathogen Venturia inaequalis and then remain in an incubation cabinet as about 20° C. and 100% relative atmospheric humidity for 1 day. The plants are then placed in a greenhouse at about 21° C. and a relative atmospheric humidity of about 90%.
(§2) Evaluation is carried out 10 days after the inoculation. 0% means an efficacy which corresponds to that of the control, whereas an efficacy of 100% means that no infection is observed.

Puccinia recondita = assay: Puccinia test (wheat)/protective; type: in vivo; conditions: 240 h, protective, application rate 500 g/ha, evaluation 10 days after inoculation, 0% = control, 100% = no infection, read-out: Efficacy in %
Description: (§3) To produce a suitable preparation of active compound, 1 part by weight of active compound is mixed with the stated amounts of solvent and emulsifier, and the concentrate is diluted with water to the desired concentration.
To test for protective activity, young plants are sprayed with the preparation of active compound at the stated application rate. After the spray coating has dried on, the plants are sprayed with a conidia suspension of Puccinia recondita. The plants remain in an incubation cabinet at 20° C. and 100% relative atmospheric humidity for 48 hours. The plants are then placed in a greenhouse at a temperature of about 20° C. and a relative atmospheric humidity of 80%.
as §2

Podosphaera leucotricha = assay: Podosphaera test (apple)/protective; type: in vivo; conditions: protective, application rate 100 g/ha, evaluation 10 days after inoculation, 0% = control, 100% = no infection
Description: as §1
To test for protective activity, young plants are sprayed with the preparation of active compound at the stated application rate. After the spray coating has dried on, the plants are inoculated with an aqueous spore suspension of Podosphaera leucotricha. The plants are then placed in a greenhouse at about 23° C. and a relative atmospheric humidity of about 70%.
as §2

Botrytis cinerea = assay: Botrytis test (bean)/protective; type: in vivo; conditions: protective, application rate 500 g/ha, evaluation 2 days after inoculation (size of infected areas), 0% = control, 100% = no infection
Description: as §1
To test for protective activity, young plants are sprayed with the preparation of active compound at the stated application rate. After the spray coating has dried on 2 small pieces of agar colonized by Botrytis cinerea are placed onto each leaf. The inoculated plants are placed in a dark chamber at about 20° C. and 100% relative atmospheric humidity.
2 days after the inoculation, the size of the infected areas on the leaves is evaluated. 0% means an efficacy which corresponds to that of the control, whereas an efficacy of 100% means that no infection is observed.

Alternaria solani = assay: Alternaria test (tomato)/protective; type: in vivo; conditions: protective, application rate 750 g/ha, evaluation 7 days after inoculation, 0% = control, 100% = no infection
Description: as §3
To test for protective activity, young tomato plants are sprayed with the preparation of active compound at the stated application rate. 1 day after the treatment, the plants are inoculated with a spore suspension of Alternaria solani and then remain at 100% relative atmospheric humidity and 20° C. for 24 h. The plants then remain at 96% relative atmospheric humidity and a temperature of 20° C.
Evaluation is carried out 7 days after the inoculation. 0% means an efficacy which corresponds to that of the control, whereas an efficacy of 100% means that no infection is observed.

[2] = Table 1 (I-c), pH 2.3, HPLC C18, 43° C., main diastereomer or, where several values in a cell, the individual diastereomers
[3] = pH 2.3, Table 1 (I-c), pH 2.3, HPLC C18, 43° C., main diastereomer or, where several values in a cell, the individual diastereomers, read-out: logP
[4] = Table 3 (I-k), pH 2.3, HPLC C18, 43° C., main diastereomer or the individual diastereomers

SMILES | logP [1, 2] | other results
CC(C)(C)CCC1CCCCC1NC(=O)C1=C(C(F)(F)F)OCCS1 (mixture of isomers) [I-c-39] | 4.66 | –
Cn1cc(C(=O)NC2CCCCC2CCC(C)(C)C)c(C(F)(F)F)n1 (mixture of isomers) [I-c-40] | 4.45 | –
Cn1cc(C(=O)NC2CCCCC2CCC(C)(C)C)c(C(F)(F)F)c1 (mixture of isomers) [I-c-41] | 4.88 | –
CC(C)(C)CCC1CCCCC1NC(=O)c1nccnc1Cl (mixture of isomers) [I-c-42] | 4.27 | –
Cc1nc(C(F)(F)F)c(C(=O)NC2CCCCC2CCC(C)C)s1 (mixture of isomers) [I-c-56] | 4.6 | –
CC(C)CCC1CCCCC1NC(=O)c1cn(C)nc1C(F)(F)F (mixture of isomers) [I-c-57] | 4.19 | –
CC(C)CCC1CCCCC1NC(=O)c1cccnc1Cl (mixture of isomers) [I-c-58] | 3.76 | –
Cc1nc(C(F)F)c(C(=O)NC2CCCCC2CCC(C)C)s1 (mixture of isomers) [I-c-59] | 4.46 | –
Cc1nn(C)c(F)c1C(=O)NC1CCCCC1CCC(C)C (mixture of isomers) [I-c-60] | 3.79 | –
CC(C)CCC1CCCCC1NC(=O)c1ccccc1C(F)(F)F (mixture of isomers) [I-c-61] | 4.59 | –
CC(C)CCC1CCCCC1NC(=O)c1cn(C)nc1C(F)F (mixture of isomers) [I-c-62] | 3.95 | –
Cc1nn(C)cc1C(=O)NC1CCCCC1CCC(C)C (mixture of isomers) [I-c-63] | 3.19 | –
CC(C)CCC1CCCCC1NC(=O)C1=C(C(F)(F)F)OCCS1 (mixture of isomers) [I-c-64] | 4.42 | –
Cc1occc1C(=O)NC1CCCCC1CCC(C)C (mixture of isomers) [I-c-65] | 4.28 | –
CC1=C(C(=O)NC2CCCCC2CCC(C)C)SCCO1 (mixture of isomers) [I-c-68] | 4.51 | –
CC(C[Si](C)(C)C)C1CCCCC1NC(=O)c1cn(C)nc1C(F)F (mixture of isomers) [I-k-6] | – | logP ([1]; pH 2.3): 4.56
Cc1nc(C(F)F)c(C(=O)NC2CCCCC2C(C)C[Si](C)(C)C)s1 (mixture of isomers) [I-k-8] | – | logP ([1]; pH 2.3): 5.13
CC(C)CC(C)C1CCCCC1N (stereo not drawn) [2-(1,3-dimethylbutyl)cyclohexanamine] | – | chromatographic logP ([1]; pH 2.3, text of Example 1, pH 2.3, two values = mixture of diastereomers, read-out: log P (pH 2.3)): 4.07
Cc1nn(C)c(F)c1C(=O)NC1CCCCC1C(C)CC(C)C (stereo not drawn) [I-c-1] | – | Efficacy in % (Venturia inaequalis): 100%; chromatographic logP [1, 3]: 4.15; pest or weed control at 500 g/ha (Puccinia recondita): 100%; Efficacy in % (Podosphaera leucotricha): 88%
CC(C)CC(C)C1CCCCC1NC(=O)c1cccnc1Cl (stereo not drawn) [I-c-2] | 4.04 | –
Cc1nc(C(F)(F)F)c(C(=O)NC2CCCCC2C(C)CC(C)C)s1 (stereo not drawn) [I-c-3] | 4.71 | chromatographic logP [1, 3]: 4.66; pest or weed control at 500 g/ha (Puccinia recondita): 100%
CC(C)CC(C)C1CCCCC1NC(=O)c1cn(C)nc1C(F)(F)F (stereo not drawn) [I-c-6] | 4.53 | Efficacy in % (Venturia inaequalis): 99%; chromatographic logP [1, 3]: 4.1; pest or weed control at 500 g/ha (Puccinia recondita): 100%; Efficacy in % (Botrytis cinerea): 90%
Cc1ccsc1C(=O)NC1CCCCC1C(C)CC(C)C (stereo not drawn) [I-c-9] | 5.15 | chromatographic logP [1, 3]: 4.73; pest or weed control at 500 g/ha (Puccinia recondita): 100%

SMILES | logP [1, 2] | other results
CC1=C(C(=O)NC2CCCCC2C(C)CC(C)C)SCCO1 (stereo not drawn) [I-c-10] | 4.83 | Efficacy in % (Alternaria solani): 100%; chromatographic logP [1, 3]: 4.52; pest or weed control at 500 g/ha (Puccinia recondita): 100%
CC(C)CC(C)C1CCCCC1NC(=O)c1cn(C)cc1C(F)(F)F (stereo not drawn) [I-c-11] | 4.83 | Efficacy in % (Venturia inaequalis): 90%; chromatographic logP [1, 3]: 4.45; Efficacy in % (Botrytis cinerea): 96%
Cc1occc1C(=O)NC1CCCCC1C(C)CC(C)C (stereo not drawn) [I-c-12] | 4.58 | chromatographic logP [1, 3]: 4.27; pest or weed control at 500 g/ha (Puccinia recondita): 100%
Cc1nn(C)cc1C(=O)NC1CCCCC1C(C)CC(C)C (stereo not drawn) [I-c-14] | 3.47 | Efficacy in % (Alternaria solani): 100%; chromatographic logP [1, 3]: 3.18; pest or weed control at 500 g/ha (Puccinia recondita): 100%
Cn1cc(C(=O)NC2CCCCC2CCC(C)(C)C)c(C(F)F)n1 (stereo not drawn) [I-c-19] | 4.22 | –
Cc1nc(C(F)F)c(C(=O)NC2CCCCC2CCC(C)(C)C)s1 (stereo not drawn) [I-c-23] | 4.71 | –
Cn1nc(C(F)(F)F)c(C(=O)NC2CCCCC2CCC(C)(C)C)c1F (stereo not drawn) [I-c-24] | 4.72 | –
Cc1occc1C(=O)NC1CCCCC1CCC(C)(C)C (stereo not drawn) [I-c-25] | 4.55 | –
CC1=C(C(=O)NC2CCCCC2C(C)CC(C)C)CCO1 (stereo not drawn) [I-c-26] | 4.06 | –
CC(C)CCC1CCCCC1NC(=O)c1cn(C)cc1C(F)(F)F (stereo not drawn) [I-c-69] | 4.61 | –
CC(C)CCC1CCCCC1NC(=O)c1ccccc1I (stereo not drawn) [I-c-70] | 4.66 | –
CC(C)CCC1CCCCC1NC(=O)c1ccccc1Cl (stereo not drawn) [I-c-71] | 4.54 | –
CC(C)CCC1CCCCC1NC(=O)c1ccsc1I (stereo not drawn) [I-c-72] | 4.8 | –
CC(C)CCC1CCCCC1NC(=O)c1c(C(F)(F)F)nn(C)c1F (stereo not drawn) [I-c-74] | 4.47 | –
CC(C)CCCC1CCCCC1NC(=O)c1cccnc1Cl (stereo not drawn) [I-c-75] | 4.22 | –
CC(C)CCCC1CCCCC1NC(=O)c1cn(C)nc1C(F)(F)F (stereo not drawn) [I-c-76] | 4.66 | –
Cc1nn(C)c(Cl)c1C(=O)NC1CCCCC1CCC(C)C (stereo not drawn) [I-c-77] | 4.07 | –
Cc1nc(C(F)F)c(C(=O)NC2CCCCC2CCCC(C)C)s1 (stereo not drawn) [I-c-78] | 4.95 | –
Cc1nn(C)c(F)c1C(=O)NC1CCCCC1CC[Si](C)(C)C (stereo not drawn) [I-k-1] | – | logP [1, 4]: 4.15
Cc1nn(C)c(F)c1C(=O)NC1CCCCC1C(C)C[Si](C)(C)C (stereo not drawn) [I-k-2] | – | logP [1, 4]: 4.51
C[Si](C)(C)CCC1CCCCC1NC(=O)c1ccsc1I (stereo not drawn) [I-k-3] | – | logP ([1]; pH 2.3): 5.13
CC(C[Si](C)(C)C)C1CCCCC1NC(=O)c1ccsc1I (stereo not drawn) [I-k-4] | – | logP ([1]; pH 2.3): 5.44

More lines, main results first:

logP [1, 2] | SMILES | other results
5.06 | Cc1nc(C(F)(F)F)c(C(=O)NC2CCCCC2CCCC(C)C)s1 (stereo not drawn) [I-c-79] | –
4.24 | Cn1cc(C(=O)NC2CCCCC2CCC(C)(C)C)c(C(F)F)n1 (stereo not drawn) [I-c-81] | –
4.72 | Cn1nc(C(F)(F)F)c(C(=O)NC2CCCCC2CCC(C)(C)C)c1F (stereo not drawn) [I-c-82] | –
4.40 | CC(C)CCCC1CCCCC1NC(=O)c1cn(C)nc1C(F)F (stereo not drawn) [I-c-83] | –
4.30 | Cc1nn(C)c(F)c1C(=O)NC1CCCCC1CCCC(C)C (stereo not drawn) [I-c-84] | –
5.05 | CC(C)CCCC1CCCCC1NC(=O)c1cn(C)cc1C(F)(F)F (stereo not drawn) [I-c-86] | –
5.03 | CC(C)(C)CCC1CCCCC1NC(=O)c1sccc1C(F)(F)F (stereo not drawn) [I-c-95] | –
5.03 | CC(C)CC(C)C1CCCCC1NC(=O)c1sccc1C(F)(F)F (stereo not drawn) [I-c-96] | –
4.87 | CC(C)(C)CCC1CCCCC1NC(=O)c1ccsc1C(F)(F)F (stereo not drawn) [I-c-97] | –
4.92 | CC(C)CC(C)C1CCCCC1NC(=O)c1ccsc1C(F)(F)F (stereo not drawn) [I-c-98] | –
5.29 | CC(CC(C)(C)C)C1CCCCC1NC(=O)c1sccc1C(F)(F)F (stereo not drawn) [I-c-99] | –
